# Source: patent US20140315972A1, “RS)-2-(2-oxo-4-phenylpyrrolidin-1-yl)acetamide compound having modulatory activity with a commensurate effect, pharmaceutical substance (variants) and its application, composition (variants) thereof” (priority 2011, published 2014)
# Marks after values point to notes of the source that are not given here.
# Columns and labels:
# mice [1] = assay: Cross maze exploratory behavior, HEF and LEF mice; assay type: in vivo; settings: i.p. once a day 5 days, Compounds 1 and 4 100 mg/kg, Piracetam 200 mg/kg
# mice [2] = assay: Tremor caused by arecoline; assay type: in vivo; settings: for Duration of tremor: mice, arecoline 25 mg/kg
# Text: Studies have been conducted on white outbred male mice (18-24 g), in comparison with the olanzapine (Zyprexa) with intraperitoneal injection.
# cats = assay type: in vivo; settings: anesthetized cats; single i.v.; 100 mg/kg (title)
# rats = assay: Carrageenan-induced paw edema; assay type: in vivo; settings: 100 mg/kg intragastrically 60 minutes before carrageenan
# Experimental: To identify and assess the anti-inflammatory action of Phenotropil, a standard technique was used; the carrageenan-induced paw edema in rats (Winter C. et al, 1962). Phenotropil at a dose of 100 mg/kg was administered intragastrically 60 minutes before carrageenan. Control animals received distilled water. Additionally, the topical application by method of formalin induced edema was investigated (subplantar administration of 0.1 ml of 2% formalin solution). Phenotropil for topical use was prepared (1:1) on the standard ointment base carrier at 100 mg/kg of body weight for each animal (150-220 g). The preparation was rubbed in the leg and a gauze patch was applied for 2 hours and 1 hour before the induction of inflammation.
# IL-1 = assay: Cytokine profile in supernatants of peripheral mononuclear cultures (ELISA), asthenoneurotic patients; assay type: in vivo, human; settings: for IL-1: asthenoneurotic disorders, humans
# Experimental: (§1) The study of immunocompetent activity of Phenotropil included patients with neurasthenia and organic asthenic disorder (20-47 years) of both sexes (men 37%, women 63%). Control group included practically healthy people (20 people). The study groups were similar in age and sex ratio. Phenotropil was administered at a dose of 100 mg/day, one time in the morning for 30 days. Study of the immune and mental status (level of IL-1, IL-2, IL-3, IL-6, α-TNF, α-INF in supernatants of cultures of peripheral mononuclears from whole blood) was carried out before treatment and at days 7, 14, 21 after the therapy course (30 days) and after 3 months of therapy. Blood sampling for analysis was carried out at the same time of day in the control group and in the group of patients. Peripheral mononuclear cells were isolated from the whole blood; interleukin level was determined by ELISA kits (“Immunotech”, France).
# IL-2 = assay: as above; assay type: in vivo, human; settings: for IL-2 (×10): asthenoneurotic disorders, humans
# Experimental: as §1
# IL-3 = assay: as above; assay type: in vivo, human; settings: for IL-3 (×10): asthenoneurotic disorders, humans
# Experimental: as §1
# IL-6 = assay: as above; assay type: in vivo, human; settings: for IL-6: asthenoneurotic disorders, humans
# Experimental: as §1
# α-INF = assay: as above; assay type: in vivo, human; settings: for α-INF: asthenoneurotic disorders, humans
# Experimental: as §1
# α-TNF = assay: as above; assay type: in vivo, human; settings: for α-TNF (×100): asthenoneurotic disorders, humans
# Experimental: as §1
# male subjects = assay: Anti-seasick (anti-kinetosis) activity, visual-vestibular effects; assay type: in vivo, human
# Experimental: Investigations of the anti-seasick (anti-kinetosis) activity of agents with creation of visual-vestibular effects modeling motion sickness were performed on male subjects (23-35 years). Test with continuous exposure to the Coriolis acceleration was performed by rotating vestibulometric chair with angular velocity 180°/s. The eyes of the subject were open, while the optokinetic drum rotated in one direction with the chair with a speed of 90°/s. The time of visual-vestibular effect, vestibulo-vegetative reactions, optokinetic nystagmus before and after kinesia was determined when the drum rotated alternately for two minutes in the R- and S-directions at a speed of 90° s, with a break for 1 minute between rotations, as well as the severity of vestibular effects was measured and the Km was calculated. The studies were conducted 60 minutes after administration of Phenotropil in doses of 25, 50, 100 and 300 mg. Baseline state values and placebo values served as control. Alternate approaches for each participant were performed a week after each previous test. The modulation factor under normal conditions without exposure was 0.97.
# patients = assay: Acneiform rash, topical solution; assay type: in vivo, human; settings: for Efficacy expressed in % (acne rush during hormonal alteration): humans, topically 0.1% aqueous solution, baseline control = 100
# Experimental: A study of effect of Phenotropil on the scalp and face skin in seborrhea oleosa and on the scalp skin in dry seborrhea, as well in the mixed form, was performed on mixed groups of both sexes (15-37 years). The 0.1% Phenotropil solution was used. In the group with mixed form, additional Phenotropil tablets were administered at a dose of 100 mg per day (in the morning). The baseline examinations were used as control. The prepared samples were rubbed into the scalp once a day 1 or 2 hours before bedtime. In the case of acneiform rash, the skin was wiped in the morning and evening by cotton pads soaked (as usual lotion) by 0.1% aqueous Phenotropil. Washing the hair using shampoo was not recommended. A neutral baby soap “Alice” by OAO Svoboda and the rinse prepared with 25 ml of lemon juice and 100 mg Phenotropil powder per 1000.0 ml water were used. Studies were conducted for 28 calendar days with monitoring examinations every 14 days. In the dry seborrhea group, three patients withdrew from the study after two weeks due to reluctance to undergo further examination; they found it difficult to comply with the regime of the detergents use. The skin state was assessed by a 4-point system, where 0—absent, 1—the effect intensity less than 50.0%, 2—the effect intensity more than 50.0%, 3—the effect intensity more than 80% but less than 100.0% of the cases.
# [3] = After treatment (one month course)
# [4] = patients, 100 mg/day 30 days, after course
# [5] = patients, three months after the therapy
# [6] = male subjects, 25, 50, 100, 300 mg
smiles,measurement,setting,value
"NC(=O)CN1CC(c2ccccc2)CC1=O (racemic) [Compound 1, (RS)-2-(2-oxo-4-phenylpyrrolidine-1-yl)acetamide]",Kt (trigger transmission coefficient),mice [1]; HEF mice,3.3 ± 0.3
same,Number of compartment explorations,mice [1]; HEF mice,4.3 ± 0.4 //
same,Number of surveillances,mice [1]; HEF mice,1.3 ± 0.2
same,Kt (trigger transmission coefficient),mice [1]; LEF mice,3.1 ± 0.35
same,Number of compartment explorations,mice [1]; LEF mice,5.0 ± 0.5 //
same,Number of surveillances,mice [1]; LEF mice,1.6 ± 0.2
same,Kt (trigger transmission coefficient),mice [1]; population as a whole,3.2 ± 0.45
same,Number of compartment explorations,mice [1]; population as a whole,4.5 ± 0.7 //
same,Number of surveillances,mice [1]; population as a whole,1.4 ± 0.2
same,reduction of duration of tremor,mice [2]; 200 mg/kg,63%
same,reduction of duration of tremor,mice [2]; 300 mg/kg,50%
same,Duration of tremor,mice [2]; 200 mg/kg,153 ± 27 s
same,Duration of tremor,mice [2]; 300 mg/kg,208 ± 36 s
same,CCA blood flow (1-2 min) vs background,cats,+26.0%
same,SBP (1-2 min) vs background,cats,−24.0%
same,SBP (at 4 min) vs background,cats,+14%
same,VPR (at 5 min) vs background,cats,−46.0%
same,shortening of inflammation vs control,rats,52.3%
same,IL-1,IL-1; [3],1.65 ± 0.03
same,IL-1,IL-1; At 3 months after treatment,1.63 ± 0.04
same,IL-1 level vs baseline values,IL-1; [4],−3.5%
same,IL-1 level vs baseline,IL-1; [5],−4.6%
same,IL-2 (×10),IL-2; [3],2.09 ± 0.04
same,IL-2 (×10),IL-2; At 3 months after treatment,2.21 ± 0.04
same,IL-2 level vs baseline values,IL-2; [4],+8.9%
same,IL-2 level vs baseline,IL-2; [5],+15.1%
same,IL-3 (×10),IL-3; [3],2.13 ± 0.05
same,IL-3 (×10),IL-3; At 3 months after treatment,2.23 ± 0.06
same,IL-3 level vs baseline values,IL-3; [4],+12.7%
same,IL-3 level vs baseline,IL-3; [5],+18.0%
same,IL-6,IL-6; [3],3.55 ± 0.15
same,IL-6,IL-6; At 3 months after treatment,3.80 ± 0.03
same,IL-6 level vs baseline values,IL-6; [4],+11.3%
same,IL-6 level vs baseline,IL-6; [5],+19.0%
same,α-INF,α-INF; [3],4.18 ± 0.06
same,α-INF,α-INF; At 3 months after treatment,4.11 ± 0.05
same,α-INF level vs baseline values,α-INF; [4],−10.3%
same,α-INF level vs baseline,α-INF; [5],−11.8%
same,α-TNF (×100),α-TNF; [3],8.56 ± 0.60
same,α-TNF (×100),α-TNF; At 3 months after treatment,7.92 ± 0.54
same,α-TNF level vs baseline values,α-TNF; [4],−11.6%
same,α-TNF level vs baseline,α-TNF; [5],−18.2%
same,"NEE, negative effects of exposure","male subjects; humans, 25-300 mg",22.5 ± 7.5 min
same,"VVE, tolerability of the visual-vestibular effects","male subjects; humans, 25-300 mg",7.70 ± 0.6 min
same,"VVR, severity of the vestibulo-vegetative reactions","male subjects; humans, 25-300 mg",2.3 ± 0.9 points
same,"improvement of visual-vestibular tolerability vs placebo, average",male subjects; [6],+80%
same,"reduction in severity of vestibulo-vegetative reactions vs placebo, average",male subjects; [6],68%
same,duration of negative consequences condition,"male subjects; male subjects, placebo 4-6 hours",15 to 30 min
same,effect on acne rash,"patients; 0.1% solution, one month",79-84%
same,Efficacy expressed in % (acne rush during hormonal alteration),patients; dry skin,−84 * %
same,Efficacy expressed in % (acne rush during hormonal alteration),patients; oily skin,−79 * %
